Assay results published in article PMC7058788, “GLI1 Inhibitor SRI-38832 Attenuates Chemotherapeutic Resistance by Downregulating NBS1 Transcription in BRAF^V600E Colorectal Cancer” (Frontiers in Oncology, 2020).
“And” between values parts separate entries of the source, which are not always exact repeats. Identical values can stand only once. Values belong to the compound of their own block, whether it stands above or below them.

Legend:
HCT8 [1] = test: CellTiter-Glo Luminescent Cell Viability (cell proliferation) assay; assay type: cell-based, human; details: for IC50: Homo sapiens, HCT-8, Figure 5B-D, HCT8 (low GLI1 expression), unit inferred, x-axis in μM
Procedure: (§1) Confluent monolayers of cells were trypsinized, and 10,000 cells suspended in 200 μl of medium were added to each well of the 96-well plate. […] The proliferation of the cells was determined using the CellTiter-Glo Luminescent Cell Viability Assay kit (Promega).

HT29 [2] = test: as above; assay type: cell-based, human
Procedure: as §1

HT29 [3] = test: Annexin V/PI flow cytometry, cell death/apoptosis; assay type: cell-based
Procedure: (§2) Cells were treated, in duplicate, as described in the figure legends. At the end of treatment, cells were collected by trypsinization and incubated with Annexin V FITC (BD Biosciences) and PI (Sigma) prior to analysis using a FACS Calibur flow cytometer. Data was analyzed using FlowJo software.

HCT116 [4] = test: Annexin V/PI flow cytometry, cell death; assay type: cell-based, human; details: 10 and 20 μM, 72 h; low GLI1 and NBS1
Procedure: as §2

HCT8 [5] = test: Annexin V/PI flow cytometry, cell death; assay type: cell-based, human; details: 10 and 20 μM, 72 h; high GLI1 and NBS1
Procedure: as §2

SW480 = test: Annexin V/PI flow cytometry, cell death; assay type: cell-based, human; details: 10 and 20 μM, 72 h; low GLI1 and NBS1
Procedure: as §2

HCT116 [6] = test: COMET assay, DNA damage by tail length; assay type: cell-based, human; details: 20 μM, 48 h
Procedure: (§3) Cells were treated with/without GANT61 (20 μM), SRI-38832 (20 μM) or 5-FU (20 μM) for 48 h, subsequently trypsinized and washed in PBS before being added to preheated (37°C), low-melting point agarose. The solution was pipetted onto slides pre-coated with 1% agarose. The chilled slides were allowed to lyse for 40 min at 4°C in 2.5 M NaCl,100 mM EDTA (pH 10), 10 mM Tris Base, 1% SDS, 1% Triton X−100 prior to immersion in alkaline electrophoresis solution (300 mM NaOH, 1 mM EDTA, pH 13). After 30 min, slides were placed into a horizontal electrophoresis chamber for ~30 min (1 V/cm at 4°C). The slides were washed with deionized H2O to remove the alkaline buffer, dehydrated in 70% ice–cold EtOH and air-dried overnight. Slides were stained with SYBR-Green and examined by microscopy. Tail length (TL) was used to quantify the DNA damage. Image analysis and quantification has been performed with ImageJ.

HT29 [7] = test: COMET assay, DNA damage by tail length; assay type: cell-based, human; details: 20 μM, 48 h
Procedure: as §3

NBS1 = test: Western blot analysis of MRN components and damage/apoptosis markers in HT29 cells; assay type: cell-based, human; details: HT29, 20 μM, 72 h
Procedure: Cells were seeded in six-well plates and cultured until 70–80% confluent in 10% FBS-supplemented RPMI medium with L-glutamine and maintained at 37°C with 5% CO2. The cells were then treated with/without GANT61, SRI-38832, or 5-FU as indicated in the figure legends, and protein isolates were analyzed by Western blot. Briefly, 15 μg of protein was loaded and separated on a SDS-PAGE gel. Proteins were transferred to polyvinylidene difluoride (PVDF) membranes overnight. Membranes were washed in TBS-T, blotted in primary antibody overnight at 4°C, and subsequently washed and blotted with HRP-linked secondary antibody for 1 h. Membranes were developed and images were taken on an ImageQuant LAS 4000.

CRC = details: 5-FU and its combinational treatment (FOLFOX), in the clinic; cited from earlier work
NBS1 mRNA = NBS1 mRNA qRT-PCR in HT29 cells; assay type: cell-based, human; details: GANT61 as early as 24 h post treatment
Procedure: Total RNA was extracted by Invitrogen™ PureLink™ RNA Mini Kit (Fisher scientific) and cDNAs were synthesized with the ThermoScript reverse transcriptional system. qRT-PCR was performed to assess the enrichment of the specific proteins along the NBS1 ORF using specific primer pairs: NBS1-primer-1-F:[…],NBS1-primer-1-R: […]. Human GAPDH cDNA was used as an internal control.

GLI1 = biological target: T1, GLI1 (Homo sapiens, UniProt P08151); test: ChIP assay, GLI1 enrichment on the NBS1 promoter in HT29 cells; assay type: cell-based; details: HT29, 20 μM, 24 h
T1 construct: HT29, which express GLI1 and have high basal NBS1 expression; endogenous in cells; host or cells: HT29
T1 sequence (P08151 1-1106): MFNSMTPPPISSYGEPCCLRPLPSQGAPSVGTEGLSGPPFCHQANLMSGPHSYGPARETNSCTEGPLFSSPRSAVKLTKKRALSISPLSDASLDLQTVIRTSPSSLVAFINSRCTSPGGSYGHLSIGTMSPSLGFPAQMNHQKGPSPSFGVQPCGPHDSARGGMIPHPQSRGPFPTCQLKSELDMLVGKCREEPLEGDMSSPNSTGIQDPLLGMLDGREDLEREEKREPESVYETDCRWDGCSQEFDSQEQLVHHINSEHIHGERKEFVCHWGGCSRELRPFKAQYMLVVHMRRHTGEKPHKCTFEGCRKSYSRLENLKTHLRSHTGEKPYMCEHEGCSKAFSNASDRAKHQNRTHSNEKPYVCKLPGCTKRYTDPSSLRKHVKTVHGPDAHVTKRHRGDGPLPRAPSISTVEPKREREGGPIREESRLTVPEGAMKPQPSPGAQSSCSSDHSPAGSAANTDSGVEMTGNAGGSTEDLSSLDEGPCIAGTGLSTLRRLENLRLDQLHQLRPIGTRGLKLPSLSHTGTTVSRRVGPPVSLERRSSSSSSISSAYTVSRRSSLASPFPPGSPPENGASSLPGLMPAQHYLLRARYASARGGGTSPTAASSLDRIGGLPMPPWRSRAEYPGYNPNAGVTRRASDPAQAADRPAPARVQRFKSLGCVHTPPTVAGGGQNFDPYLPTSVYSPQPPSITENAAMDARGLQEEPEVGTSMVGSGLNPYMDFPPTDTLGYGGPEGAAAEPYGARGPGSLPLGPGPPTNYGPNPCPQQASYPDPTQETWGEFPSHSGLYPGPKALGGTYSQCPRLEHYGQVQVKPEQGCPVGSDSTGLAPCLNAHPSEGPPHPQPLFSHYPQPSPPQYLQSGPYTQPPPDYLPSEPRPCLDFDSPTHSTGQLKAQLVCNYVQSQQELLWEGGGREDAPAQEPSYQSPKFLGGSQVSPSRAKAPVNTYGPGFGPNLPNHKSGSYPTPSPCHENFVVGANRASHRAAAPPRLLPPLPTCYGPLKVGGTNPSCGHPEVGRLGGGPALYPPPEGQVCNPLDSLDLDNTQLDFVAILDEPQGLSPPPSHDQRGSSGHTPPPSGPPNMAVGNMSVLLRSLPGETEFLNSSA
Procedure: HT29 cells (2 × 10^6) were seeded in T75 flasks. After overnight attachment, cells were treated with/without GANT61 (20 μM) or SRI-38832 (20 μM) for 24 h. The cells were trypsinized, washed with 1x PBS and fixed with 1.1% formaldehyde for 10 min at RT. Glycine (0.125 M) was added to stop the reaction. Cells were washed with PBS × 1 and lysed using the ChIP kit according to the manufacturer's instructions (Abcam, Ab500). To fragment the DNA, the cells were sonicated (30 s with 30 s cooling repeatedly for 15 cycles) to obtain fragmented DNA from 100 bp to 1 kB which was verified by agarose gel migration. Lysates were subjected to immunoprecipitation overnight at 4°C with 10 μg of anti-human antibodies for GLI1 (Novus) and Histone H3 for positive control provided by the Abcam ChIP kit. The complex was subsequently incubated with Dynabeads protein G (Invitrogen) for 2 h, 4°C, on a rotating wheel. Beads were washed for 10 min at 4°C with low salt buffer (2x TE, 150 mM NaCl, 1% Triton X-100, 0.1% SDS). Beads were then washed for 10 min at 4°C with high salt buffer (2x TE, 500 mM NaCl, 1% Triton X-100, 0.1% SDS). Next, beads were washed for 10 min at 4° with LiCl buffer (1x TE, 1% NP-40, 0.25 M LiCl, 1% deoxycholate). […]

MRN complex = test: Confocal microscopy, NBS1 signal and NBS1/MRE11 co-localization in HT29 cells; assay type: cell-based, human
Procedure: Cells were plated at a density of 50,000 cells/well in six-well plates on coverslips and allowed to attach overnight. Media was removed and cells were treated with/without GANT61 (20 μM) for 48 h. Coverslips were removed and placed in a humidity chamber for fixation by absolute methanol for 10 min at 4°C. Cells were permeabilized with acetone for 1 min at 4°C. After washing with PBS × 3, cells were incubated with the diluted primary antibody overnight at 4°C. Cells were subsequently washed x 3 and incubated with appropriate secondary antibody at room temperature in the dark for 1 h. After washing with PBS, cell nuclei were stained with DAPI at RT for 5–10 min. Confocal images were acquired on a Nikon A1 laser confocal system with a Nikon Eclipse Ti microscope and a 60X Plan Apo objective. Lasers used were 405 nm for blue, 488 nm for green, and 561 nm for red. NIS Elements AR 4.5000 software was used to acquire Z-stacks of each channel sequentially to avoid spectral cross talk. Each slice was captured at a 0.15 μm step. Primary antibodies used were γH2AX (Millipore 1:200), NBS1 (Novus 1:200), and MRE11 (Cell Signaling 1:200). The co-localization index for specific foci and fluorescent intensity were calculated by ImageJ.

[8] = set-up: method as in PMID 29338454; details: cited from earlier work
BRAF^V600E variant = test system: BRAF^V600E variant; set-up: method as in PMID 26460303; details: single agent, BRAF^V600E CRC patients; cited from earlier work
[9] = Homo sapiens, HT-29, Figure 5B-D, HT29 (high GLI1 expression), unit inferred, x-axis in μM
[10] = Homo sapiens, HT-29, Figure 5E, comparison on HT29, unit inferred
[11] = Homo sapiens, HT-29, HT29, values in running text

Compound: O=c1[nH]cc(F)c(=O)[nH]1 [5-FU, 5-fluorouracil]
IC50 in HCT8 lower than in HT29 (HCT8 [1]; HCT8 vs HT29): 5 fold
IC50 (HCT8 [1]): 110 µM
IC50 (HT29 [2]; [9]): 528 µM
IC50 (HT29 [2]; [10]): 525 µM
IC50 (HT29 [2]; [11]): 625 µM
sensitivity to 5-FU treatment (cell death) (HT29 [3]; 10 and 20 μM, 72 h, high GLI1 and NBS1): resistant
apoptotic cells after 5-FU treatment (HT29 [3]; shGLI1 HT29 cells): about 60%
apoptotic cells after 5-FU treatment (HT29 [3]; siNBS1 HT29 cells): Over 40%
dead cells after 5-FU treatment (HT29 [3]; vector HT29 cells (shGLI1 experiment)): 20%
sensitivity to 5-FU treatment (cell death) (HCT116 [4]): highly sensitive
sensitivity to 5-FU treatment (cell death) (HCT8 [5]): resistant
sensitivity to 5-FU treatment (cell death) (SW480): highly sensitive
tail length relative to control (HCT116 [6]): about 3.5 time of control
induction of DNA damage (comet assay) (HT29 [7]): did not
expression of MRE11 and RAD50 (NBS1): did not result in any significant decreases
total NBS1 protein level (NBS1): did not result in any significant decreases
overall response rate (CRC): 10–15%

Compound: CN(C)c1ccccc1CN1CCCN(Cc2ccccc2N(C)C)C1c1ccncc1 [GANT61]
IC50 (HT29 [2]; Figure 6A, HT29, unit inferred): 22 µM
IC50 (HT29 [2]; HT29, values in running text): 21.9 µM and 21 µM
cells rescued from apoptosis after GANT61 treatment by overexpression of any NBS1 vector (HT29 [3]; GANT61 20 μM, 72 h, NBS1, S343A or S343E overexpressing HT29): ~ 25%
apoptotic HT29 cells (HT29 [3]; time-course, 48 h of treatment): ~40%
tail length relative to control (HT29 [7]): 2.5 time of control
expression of MRE11 and RAD50 (NBS1): did not substantially alter
total NBS1 protein level (NBS1): significantly decreased
γ-H2AX level (NBS1): increased levels
NBS1 mRNA level (NBS1 mRNA): significantly decreased
GLI1 binding enrichment on the NBS1 promoter (GLI1): significantly reduced
co-localization of NBS1 and MRE11 (MRN complex; HT29, 20 μM): significant decrease
fluorescent signal of NBS1 (MRN complex; HT29, 20 μM (24 h in text, 48 h in legend and method)): significantly reduced
stability in vivo [8]: hydrolyzed and loses biological activity in vivo

Compound: CCCS(=O)(=O)Nc1ccc(F)c(C(=O)c2c[nH]c3ncc(-c4ccc(Cl)cc4)cc23)c1F [Vemurafenib]
response rate (BRAF^V600E variant): < 5%

IC50 (HCT8 [1]): 80.5 µM
IC50 higher than GANT61 (HT29 [2]; HT29 cells): 4 fold
IC50 (HT29 [2]; [9]): 78.7 µM
IC50 (HT29 [2]; [10]): 81.4 µM
IC50 (HT29 [2]; [11]): ~80 µM
Compound: CS(=O)(=O)c1ccc(C(=O)Nc2ccc(Cl)c(-c3ccccn3)c2)c(Cl)c1 [Vismodegib]
